In experiment [1] the test system is mono-methyl arginine in RKO cells. In words: RKO Methylation Assay, In Cell Western (ICW) for detection of mono-methyl arginine and DNA content. In kind it is cell-based. Conditions: RKO cells; for EC30: read-out: In Cell Western EC30. The procedure, abridged: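 RKO cells were treated with compound for 72 hours at 37 °C, methanol-fixed and stained overnight at 4 °C with anti-mono-methyl arginine (1:200), with DRAQ5 for DNA. Odyssey 800/700 nm intensity ratio was normalized to DMSO and 20 μM reference-compound controls. EC30 from triplicate nine-point curves.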

Experiment [2] deals with full-length human PRMT6 (Flag- and His-tagged) (Homo sapiens, UniProt Q96LA8). In words: PRMT6 Biochemical Assay (3H-SAM Flashplate, peptide substrate). Conditions: read-out: Biochemical IC50 PRMT6. In a few lines:
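Radiometric methyltransferase readout: tritium transfer onto a biotin-tagged histone H4 36-50 peptide bearing monomethyl K44 (75 nM), captured on streptavidin Flashplates after stopping with 400 uM unlabeled SAM. Enzyme is baculovirus-expressed Flag-PRMT6-His at 1 nM, given 30 min with compound at room temperature before adding 200 nM 3H-SAM and 250 nM cold SAM (pH 7.6 Bicine, 2% DMSO). Percent inhibition relative to max/min (1 mM SAH) controls, curve-fit to IC50.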

Setting [3] is: Homo sapiens, RKO, 72 h, 72 hours compound incubation, mono-methyl arginine signal normalised to DNA content (DRAQ5), percent activation vs 20 μM reference compound.
Setting [4] is: Homo sapiens, RKO, 72 h, 72 hours incubation, mono-methyl arginine signal normalised to DNA content, single experiment or average of multiple experiments.
The mark [5] stands for this setting: single experiment or average of multiple experiments.

18 compounds from patent US11512053B2, “Arginine methyltransferase inhibitors and uses thereof” (priority 2013, dated 2022) can be followed below.

Like-named read-outs stand apart in the source and are kept apart here.

full-length human PRMT6 (Flag- and His-tagged), sequence (Q96LA8 with tags, fused parts or gaps): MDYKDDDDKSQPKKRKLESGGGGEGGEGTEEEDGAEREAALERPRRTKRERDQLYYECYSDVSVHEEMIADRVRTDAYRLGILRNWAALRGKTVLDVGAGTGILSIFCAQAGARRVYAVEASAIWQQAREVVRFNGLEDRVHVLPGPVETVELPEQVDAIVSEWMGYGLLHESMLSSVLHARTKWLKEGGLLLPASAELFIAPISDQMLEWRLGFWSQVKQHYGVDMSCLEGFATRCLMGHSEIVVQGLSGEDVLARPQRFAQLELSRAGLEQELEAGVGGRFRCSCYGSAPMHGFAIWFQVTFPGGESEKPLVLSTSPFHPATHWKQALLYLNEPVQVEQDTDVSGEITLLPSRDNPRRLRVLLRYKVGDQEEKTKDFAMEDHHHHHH

For orientation: EC30 means the concentration at which the effect reaches the 30% level. In general, IC50 refers to the concentration that inhibits the measured activity by half. As to `CNCCN(C)Cc1c[nH]nc1[C@H]1CC[C@H](N(CCCOC)C(=O)CC(C)C)CC1` [Compound 241], the results for the EC30 in experiment [1] (setting [3]) and in experiment [1] (setting [4]) were under 3000 nM and 1180 nM, respectively. Also, the figures for the IC50 in experiment [2] and in experiment [2] (setting [5]) were under 100 nM and 32.8 nM, respectively.

For `CNCCN(C)Cc1c[nH]nc1[C@H]1CC[C@@H](N(CCCOC)C(=O)CCC(C)C)CC1` [Compound 244], the EC30 was under 3000 nM in experiment [1] (setting [3]) and 2530 nM in experiment [1] (setting [4]). The IC50 was under 100 nM in experiment [2] and 54.8 nM in experiment [2] (setting [5]).

As for `CNCCN(C)Cc1c[nH]nc1[C@H]1CC[C@@H](N(CCCOC)C(=O)CCOc2ccccc2)CC1` [Compound 246], the EC30 was under 3000 nM in experiment [1] (setting [3]) and 79.9 nM in experiment [1] (setting [4]). The values for the IC50 in experiment [2] and in experiment [2] (setting [5]) were under 100 nM and 28.3 nM, respectively.

Regarding `CNCCN(C)Cc1c[nH]nc1[C@H]1CC[C@H](N(CCCOC)C(=O)CCOc2ccccc2)CC1` [Compound 247], the EC30 was under 3000 nM in experiment [1] (setting [3]) and 698 nM in experiment [1] (setting [4]). Also, the concentration for half-maximal inhibition (IC50) in experiment [2] is under 100 nM; in experiment [2] (setting [5]), 20.2 nM.

On to `CNCCN(C)Cc1c[nH]nc1[C@H]1CC[C@H](N(CC(C)C)C(=O)CCCOC)CC1` [Compound 248], for which the EC30 in experiment [1] (setting [3]) is under 3000 nM; in experiment [1] (setting [4]) it was 1310 nM. Also, the IC50 was under 100 nM in experiment [2] and 32.6 nM in experiment [2] (setting [5]).

With `CNCCN(C)Cc1c[nH]nc1[C@H]1CC[C@H](N(CC(C)C)C(=O)CCCOC)CC1` [Compound 249], in experiment [1] (72 hours compound incubation, mono-methyl arginine signal normalised to DNA content (DRAQ5), percent activation vs 20 μM reference compound), the “In Cell Western EC30” value is given as “A (“A” indicates an EC30 ≤ 3.00 μM)”. The EC30 in experiment [1] (72 hours incubation, mono-methyl arginine signal normalised to DNA content, single experiment or average of multiple experiments) is 658.5 nM. The IC50 in experiment [2] is under 100 nM; in experiment [2] (setting [5]) it was 82.8 nM.

In the case of `CCN(C(=O)CCC(C)C)[C@H]1CC[C@@H](c2n[nH]cc2CN(C)CCNC)CC1` [Compound 251], the EC30 in experiment [1] (setting [3]) is under 3000 nM; in experiment [1] (setting [4]) it was 1450 nM. The IC50 in experiment [2] was under 100 nM; in experiment [2] (setting [5]), 17.1 nM.

As to `CNCCN(C)Cc1c[nH]nc1[C@H]1CC[C@H](N(CCOC)C(=O)CC(C)C)CC1` [Compound 252], the EC30 in experiment [1] (setting [3]) was under 3000 nM; in experiment [1] (setting [4]), 267 nM. For the same compound, the figures for the IC50 in experiment [2] and in experiment [2] (setting [5]) were under 100 nM and 48.3 nM, respectively.

Turning to `CNCCN(C)Cc1c[nH]nc1[C@H]1CC[C@]2(CCOC2(C)C)CC1` [Compound 253], the EC30 in experiment [1] (setting [3]) was under 3000 nM; in experiment [1] (setting [4]) it was 56.6 nM. The 50% inhibitory concentration (IC50) in experiment [2] was under 100 nM; in experiment [2] (setting [5]), 13.4 nM.

For `CNCCN(C)Cc1c[nH]nc1[C@H]1CC[C@H](N(CCOC)C(=O)CCC(C)C)CC1` [Compound 254], the 30% effect concentration (EC30) in experiment [1] (setting [3]) is under 3000 nM; in experiment [1] (setting [4]), 1340 nM. Moreover, the IC50 in experiment [2] was under 100 nM; in experiment [2] (setting [5]), 17.6 nM.

On to `CNCCN(C)Cc1c[nH]nc1C1CCC(C)(C)[C@@H](C(=O)OC)C1` (stereo partly drawn) [Compound 255], for which the figures for the EC30 in experiment [1] (setting [3]) and in experiment [1] (setting [4]) were under 3000 nM and 214 nM, respectively. In addition, the results for the IC50 in experiment [2] and in experiment [2] (setting [5]) were under 100 nM and 27.6 nM, respectively.

Turning to `CNCCN(C)Cc1c[nH]nc1C1CCC(C)(C)[C@H](C(=O)OC)C1` (stereo partly drawn) [Compound 256], the EC30 in experiment [1] (setting [3]) was under 3000 nM; in experiment [1] (setting [4]) it was 316 nM. Moreover, the IC50 was under 100 nM in experiment [2] and 38.5 nM in experiment [2] (setting [5]).

`CNCCN(C)Cc1cnn(C)c1[C@H]1CC[C@]2(CC1)CC(C)(C)CO2` [Compound 257]: the concentration for an effect of 30% (EC30) was under 3000 nM in experiment [1] (setting [3]) and 13.2 nM in experiment [1] (setting [4]). Moreover, the IC50 in experiment [2] is 101 to 1000 nM; in experiment [2] (setting [5]), 153 nM.

For the compound `CNCCN(C)Cc1c[nH]nc1[C@H]1CC[C@H](C(=O)N(C)CCOc2ccccc2)CC1` [Compound 258], the EC30 is under 3000 nM in experiment [1] (setting [3]) and 303 nM in experiment [1] (setting [4]). For the same compound, the IC50 in experiment [2] was under 100 nM; in experiment [2] (setting [5]), 18 nM.

As to `CNCCN(C)Cc1c[nH]nc1[C@H]1CC[C@@H](C(=O)N(C)CCOc2ccccc2)CC1` [Compound 259], the EC30 was under 3000 nM in experiment [1] (setting [3]) and 408 nM in experiment [1] (setting [4]). The IC50 in experiment [2] is under 100 nM; in experiment [2] (setting [5]) it was 33.1 nM.

As to `CNCCN(C)Cc1c[nH]nc1[C@H]1CC[C@@]2(CCC(C)(C)O2)CC1` [Compound 260], the EC30 in experiment [1] (setting [3]) was under 3000 nM; in experiment [1] (setting [4]), 207 nM. Besides, the IC50 is under 100 nM in experiment [2] and 83.1 nM in experiment [2] (setting [5]).

In the case of `CNCCN(C)Cc1c[nH]nc1[C@H]1CC[C@@H](N(CCOC)C(=O)CCC(C)C)CC1` [Compound 261], the EC30 in experiment [1] (setting [3]) is under 3000 nM; in experiment [1] (setting [4]), 289 nM. Besides, the IC50 in experiment [2] is under 100 nM; in experiment [2] (setting [5]), 31.7 nM.

On to `CNCCN(C)Cc1c[nH]nc1C1CCC(C)(C)[C@H](C(=O)NCC(C)C)C1` (stereo partly drawn) [Compound 262], for which the EC30 was under 3000 nM in experiment [1] (setting [3]) and 289 nM in experiment [1] (setting [4]). The half-maximal inhibitory concentration (IC50) in experiment [2] is under 100 nM; in experiment [2] (setting [5]) it was 81.2 nM.
